Measured values: patent publication EP4700040A1, “PEPTIDE AND LUMINESCENT COMPLEX CONTAINING SAME” (Shenzhen Loggene Life Science & Technology Co., Ltd., priority 2023, dated 2024)

Legend:
Assay type in all cases: biochemical, human
[1] = test system: PCT; assay: Complementation of purified rSCFV18-small subunit mutant fusion protein with large subunit-rSCFV5 fusion protein, PCT gradient (Example 2); conditions: for luminescence value: CTZ-h 25 µM, 20 s; for Signal-to-noise ratio at 1000 pg/ml: PCT 1000 pg/ml versus 0
Procedure: Protein expression and purification of small subunit mutants: The strains containing plasmids of different small subunits inTable 2, prepared in Example 1, were inoculated into 200ml of 2YTA medium and cultured at 37°C with shaking at 250 rpm for about 3h. When the OD600 reached 1.0, IPTG was added to a final concentration of 1mM, and the culture was further incubated at 30°C with shaking at 250rpm for 20h. The culture were centrifuged at 5,000g for 10min, and the precipitate was resuspended with 10ml of PBS, added with polymyxin B to 20,000u/ml. The suspension was inverted and mixed at room temperature for 1h, and centrifuged at 10,000g to collect the supernatant. The rSCFV18-small subunit mutant fusion protein was purified according to the standard procedure for his-tag protein purification using Ni-NTA resin.
In the same tube, the large subunit-rSCFV5 fusion protein was diluted with PBSA to 50 nM; rSCFV18-small subunit mutant fusion protein was diluted to 90 nM, mixed well, and then 22 µl was added per well; the MBP-PCT fusion protein was diluted in 3-fold gradient with PBSAD (in pg/ml), with 8 gradients in total, 10µl was added per well, and the background control was PBSAD and 10 µl was added per well; the plate was mixed with slight shaking and incubated at 37°C for 6 min, 50 µl of Obuffer 6.37-3 containing 25 µM of CTZ-h then was added, and after 20 s, the luminescence value was detected.

[2] = test system: PCT; assay: Signal-to-noise ratio and linear range for PCT detection, purified fusion proteins (Example 3); set-up: key to luminescence value: luminescence normalized against the background value; conditions: for Signal-to-noise ratio at 1000 pg/ml: large subunit 100 nM, small subunit fusion 180 nM, CTZ-h 25 µM, 140 s
Procedure: Test Methods: • (1) MBP-PCT protein was diluted with PBSAD in 10-fold gradient starting from 100 ng/ml, with 8 gradients in total, and 10 µl was added per well; • (2) The large subunit-SCFV5 fusion protein was diluted with PBSA to 100 nM, and 10 µl was added per well; • (3) Different rSCFV18-small subunit mutant fusion proteins were diluted with PBSA to 180 nM, and 10 µl of each was added per well; • (4) The plate was mixed slightly and incubated at 37°C for 10 min; and • (5) 50 µl of Obuffer 6.37-3 containing 25 µM of CTZ-h was added, and after 140 s, the luminescence value was detected. The results are shown after normalization against the background value.

[3] = test system: PCT; assay: Luciferase dual-antibody complementary activation assay for PCT detection, clone supernatants, retest with CTZ-h (Example 1); conditions: for Signal-to-noise ratio: RLU antigen+/RLU antigen-, MBP-PCT 3.3 ng/ml, CTZ-h; for PCT+: luminescence signal value with MBP-PCT 3.3 ng/ml, large subunit-rSCFV5 50 nM, supernatant; for PCT+ / PCT-: retest CTZ-h 25 µM, read after 60 s; for PCT-: luminescence signal value, background control PBSAD without PCT
Procedure: In order to improve the signal-to-noise ratio and complementary activity of the luciferase dual-antibody complementary activation assay, a series of complementary luciferase small subunits were prepared in this example. Large subunit-rSCFV5 fusion protein (SEQ ID NO: 87) was kept unchanged, and the small subunit sequence of the rSCFV18-small subunit P114 fusion protein (SEQ ID NO: 88) was modified by semi-randomization to prepare rSCFV18-small subunit mutant fusion proteins. Based on the sequence of small subunit P114, and with reference to the 3D structure of complementary luciferase, computer-aided sequence design was employed to generate a library with a theoretical diversity of 2.49*10^6. Primers were designed for PCR amplification using the plasmid pComb3x of rSCFV18-small subunit P114 fusion protein as a template. Subsequently, an expression vector library was constructed by means of restriction digestion and ligation (SfiI, NheI), and a semi-random amino acid mutation library was introduced into the small subunit position and transformed into HB2151 competent cells, yielding a library capacity of 7.6*10^9. The 100 plates were spread, and 9,500 single clones were picked and inoculated into 600 µL of 2YTA medium, followed by incubation at 37°C with shaking at 250 rpm for 2 h. When the bacterial density reached approximately OD600 = 0.6~1.0, IPTG was then added to a final concentration of 1 mM, and the culture was further incubated at 30°C with shaking at 250 rpm for 20 h. The next day, the bacteria were collected by centrifugation at 4°C, 4,500g for 10min. The supernatant was discarded, and the precipitate was resuspended with 200µl of PBS containing polymyxin B at a final concentration of 20,000 u/ml. The suspension was incubated at room temperature with shaking at 100rpm for 1h, and then centrifuged at 4500g for 10min, and the supernatant was used for the test.
Test Methods: • (1) The concentration of large subunit-rSCFV5 fusion protein was diluted to 50 nM, and 15 µl was added per well; • (2) MBP-PCT fusion protein was diluted to 3.3 ng/ml with PBSAD, and 15 µl was added per well. The background control was PBSAD, and 10 µl was added per well; • (3) HB2151 strain containing expression plasmids with different small subunit were induced by 1 mM of IPTG at 30°C overnight, then treated with polymyxin B for 1.5 h, and centrifuged to collect the supernatant, and 2.5 µl supernatant was added per well; • (4) The above three components were slightly mixed, incubated at 37°C for 7 min, and Obuffer 6.37-3 containing Furimazine at a concentration of 25 µM was added, and after 80 s, the luminescence signal value was detected using a bioluminescence detector; and • (5) Clones with RLU higher than 10,000 and a signal-to-noise ratio (RLU antigen+/RLU antigen-) higher than that of the rSCFV18-small subunit P114 fusion protein were selected for retesting. The substrate was replaced with CTZ-h for retesting. Obuffer 6.37-3 containing CTZ-h at a concentration of 25 µM was added, and after 60 s, the luminescence signal value was detected using a bioluminescence detector.

[4] = test system: PCT; assay: Signal-to-noise ratio and linear range for PCT detection, purified fusion proteins (Example 3); set-up: key: luminescence normalized against the background value; conditions: PCT 3.3 (pg/ml); normalized against the background value
[5] = PCT 0 pg/ml (background control PBSAD)
[6] = PCT 1000 pg/ml, large subunit 50 nM, small subunit fusion 90 nM
[7] = PCT 100 (pg/ml), normalized against the background value
[8] = PCT 1000 (pg/ml), normalized against the background value
[9] = PCT 10000 (pg/ml), normalized against the background value
[10] = PCT 100000 (pg/ml), normalized against the background value

| signal-to-noise ratios in luciferase dual-antibody complementary activation for PCT detection ([2]; statement in words on Table 3 and Figure 2) | Signal-to-noise ratio [3] | PCT+ [3] | PCT- [3] | Sequence | luminescence value [1, 5] | luminescence value ([1]; PCT 1.37 pg/ml) | luminescence value ([1]; PCT 4.12 pg/ml) | luminescence value ([1]; PCT 12.35 pg/ml) | luminescence value ([1]; PCT 37.04 pg/ml) | luminescence value ([1]; PCT 111.1 pg/ml) | luminescence value ([1]; PCT 333.3 pg/ml) | Signal-to-noise ratio at 1000 pg/ml [1] | luminescence value [1, 6] | luminescence value ([2]; PCT 0, background, normalized) | luminescence value [2, 7] | luminescence value [2, 8] | luminescence value [2, 9] | luminescence value [2, 10] | Signal-to-noise ratio at 1000 pg/ml [2] | luminescence value [4] |
| --- | --- | --- | --- | --- | --- | --- | --- | --- | --- | --- | --- | --- | --- | --- | --- | --- | --- | --- | --- | --- |
| higher signal-to-noise ratios | 48 | 46672 | 953 | VEGYRLFDRKS [RB073] | 412 | 358 | 475 | 591 | 1013 | 2302 | 5886 | 38.9 | 16026 | 5000 | 12151 | 72352 | 566678 | 1966617 | 14.5 | 5283 |
|  | 12.2 | 5058 | 414 | VTGYRLFEEIL [P114, reference compound] | 333 | 398 | 383 | 400 | 435 | 495 | 656 | 1.44 | 1256 | 5000 | 7073 | 18839 | 129750 | 642399 | 3.8 | 4789 |
